Assay results from patent US20120115742A1, “METHODS FOR IDENTIFICATION” (Cambridge Enterprise Limited, priority 2009, published 2012).

Tests used:
TNF-alpha = experiment: Sub-lethal endotoxemia model, serum TNF-alpha after LPS; type: in vivo, mouse; details: dose-dependent; BN83250 s.c., valerolactam oral gavage
Protocol: We selected the sub-lethal endotoxemia model in mouse, because this has been well characterised in our laboratory (see for example Fox et al. (2002) J. Med. Chem. 45:360-70; Fox et al. (2005) J. Med. Chem. 48:867-74). The extent of systemic inflammation in response to a single intraperitoneal injection of bacterial lipopolysaccharide (LPS) can be estimated by measuring serum TNF-alpha 2 hours post challenge.
Methods: Mice (CD1 strain; adult males; 6 per group) were treated with BSCI (in an appropriate vehicle) or with vehicle alone by an appropriate route. […] Simultaneously, one set of mice at each BSCI concentration received BIM 23627 at 4 mg/animal (120 mg/kg) by sub-cutaneous injection (a treatment condition known to suppress classical sstr2-mediated signalling, such as GH release, in rats; Tulipano et al. (2002) 143:1218-24). Between 30 mins and 1 hour after dosing (a period when a maximal plasma concentration of BSCI has been achieved), the inflammatory challenge was elicited by intraperitoneal injection of 750 μg of LPS (Sigma; L4130 lot#024K4077; 900,000 EU/mg).
After a further 2 hours, the animals were sacrificed by CO2 asphyxiation, and blood was drawn by cardiac puncture. Serum was prepared by conventional methods, and the level of TNF-alpha in serum was measured using an ELISA (R&D Systems; Murine Quantikine code# MTA00) performed in accordance with the manufacturer's instructions.

Jurkat-D3B cells = experiment: SDF-1α induced migration of Jurkat-D3B cells expressing sstr2; type: cell-based, human; details: Jurkat-D3B versus parental Jurkat
Protocol: Methods: Total mRNA was prepared from Panc-1 cells (a human pancreas cell line which is well known to express high levels of sstr2) using the RNAqueous 4PCR kit (Ambion, Cat code #1914) in accordance with the manufacturer's instructions. The mRNA was then reverse transcribed (using the RETROscript kit; Ambio) to yield a cDNA preparation. A full length cDNA of the sstr2 gene was then obtained by PCR (using a Peltier PTC-200 thermal cycler using the following cycle times and conditions: 94° C. for 2 min, followed by 30 cycles of 94° C., for 30 sec, 55° C. for 30 sec, 72° C. for 1 min and finally 72° C. for 10 min), and isolated by preparative gel electrophoresis. The sequence of the sstr2 cDNA was confirmed by sequencing. The sstr2 cDNA was treated with EcoRI and Xhol to generate sticky ends, which allowed directional cloning into the polylinker of the plasmid pcDNA3.1+ (Invitrogen) followed by ligation ([…] ligation reactions were run with 400 T4 DNA ligase (New England Biolabs) and the maximal amounts of DNA with an insert:plasmid ratio of 3:1 in ligase buffer incubated overnight at 13° C.). […]
A number of individual cell lines were obtained in this way, which expressed significant levels of sstr2 on the cell surface, detected by flow cytometry using the human-sstr2 antibody (Sigma, 50694; see Example 3 for details of the flow cytometry protocol used). […]

(S)-3-(2′,2′-dimethyldodecanoyl)amino-caprolactam [BN83250]
inhibition of LPS-induced systemic inflammation (TNF-alpha): dramatically inhibited
increase in BSCI sensitivity by ectopic expression of sstr2 (Jurkat-D3B cells): more than 100 fold
